Experimental data from US11098073B2, “Triphenylphosphonium-tethered tetracyclines for use in treating cancer” (Oxford University Innovation Limited, priority 2017, dated 2021).
Where a name gives a salt, the structure may show the parent alone.

Tested on: MDA-231 cancer cells
Assay: Inhibition of proliferation assay: cell confluence (IncuCyte live cell imaging)
Format: cell-based
Details: compound tested at 10 μM, images every 3 h over 4-5 d, relative confluence normalised to time zero
Description: Inhibition of Proliferation Assay
The confluence value is a surrogate for cell proliferation and growth. The value is expressed as a percent confluence, which represents the fraction of culture dish-surface that is occupied by cells. As the number of cells in the dish increases over time due to proliferation, so will their coverage of that surface increase. Expansion of the cell population on the cell culture-dish surface and confluence have mostly a linear relationship until the cells on the plate surface begin to reach saturation or maximum density.
Confluence is determined based on image analysis. Image based software can identify objects in the image field base on changes to pixel density in a grey scale image. The software can then assign a mask to those pixels within the object. Objects can be ‘gated’ out based on size and shape. To determine cell confluence, images of cells are first masked as objects. The surface area of the image that is masked is measured and compared to the total surface area of the culture dish surface to obtain a percent confluence.
MDA-231 cancer cells were obtained from ATCC. Cells were cultured in Dulbecco's Modified Eagle Medium (DMEM) supplemented with 10% Fetal Bovine Serum (FBS), 2 mM Glutamax, 1 mM Non Essential Amino Acid (NEAA) solution and 1 mM sodium pyruvate. […] Final DMSO concentrations were […]. Images were acquired with an IncuCyte Live Cell Imaging microscopy (Essen Bioscience) at every 3 h under cell culture conditions with 10 OX objective over 4-5 d. Cell confluence was calculated from one field of view per well using the IncuCyte in-built algorithm. Relative confluence values were obtained by normalising each value to the time zero value in each sample.

Structure (SMILES)	% Confluence
C[C@H]1c2ccc(NC(=O)CNC(=O)CCC[P+](c3ccccc3)(c3ccccc3)c3ccccc3)c(O)c2C(=O)C2=C(O)[C@]3(O)C(=O)C(C(N)=O)=C(O)[C@@H](N(C)C)[C@@H]3[C@@H](O)[C@@H]21 [Example 9, {3-[({[(5R,5aR,6S,6aR,7S,10aS)-9-carbamoyl-7-(dimethylamino)-1,6,8,10a,11-pentahydroxy-5-methyl-10,12-dioxo-5,5a,6,6a,7,10,10a,12-octahydrotetracen-2-yl]carbamoyl}methyl)carbamoyl]propyl}triphenylphosphonium trifluoroacetate]	83%
C[C@H]1c2ccc(NC(=O)CCCCCCCC[P+](c3ccccc3)(c3ccccc3)c3ccccc3)c(O)c2C(=O)C2=C(O)[C@]3(O)C(=O)C(C(N)=O)=C(O)[C@@H](N(C)C)[C@@H]3[C@@H](O)[C@@H]21.[Cl-] [Example 20]	25.2%
C[C@H]1c2ccc(NC(=O)CCCCCC[P+](c3ccccc3)(c3ccccc3)c3ccccc3)c(O)c2C(=O)C2=C(O)[C@]3(O)C(=O)C(C(N)=O)=C(O)[C@@H](N(C)C)[C@@H]3[C@@H](O)[C@@H]21.[Cl-] [Example 19]	22.4%
C[C@H]1c2ccc(NC(=O)CCCCCCC[P+](c3ccccc3)(c3ccccc3)c3ccccc3)c(O)c2C(=O)C2=C(O)[C@]3(O)C(=O)C(C(N)=O)=C(O)[C@@H](N(C)C)[C@@H]3[C@@H](O)[C@@H]21 [Example 2, (7-{[(5R,5aR,6S,6aR,7S,10aS)-9-carbamoyl-7-(dimethylamino)-1,6,8,10a,11-pentahydroxy-5-methyl-10,12-dioxo-5,5a,6,6a,7,10,10a,12-octahydrotetracen-2-yl]carbamoyl}heptyl)triphenylphosphonium formate]	81.2%
